In paper PMC5865166, “MultiBacMam Bimolecular Fluorescence Complementation (BiFC) tool-kit identifies new small-molecule inhibitors of the CDK5-p25 protein-protein interaction (PPI)” (Scientific Reports, 2018):

Tests used:
CDK5-p25 PPI = target: T1, CDK5-p25 PPI (Homo sapiens, UniProt Q00535+Q15078, D144N); experiment: MultiBacMam BiFC assay of CDK5-p25 PPI in transduced U2OS cells (VN-CDK5(D144N)/VC-p25); details: mammalian cell-based BiFC assay, versus published yeast-based data
T1 construct: The cleavage of p35 by the protease calpain generates p25; expressed in transfected cells; host or cells: U2OS cells transduced with MultiBacMam baculovirus
Experimental: (§1) Experiments were carried out in sterile, black clear-bottom 384 well plates (Cell carrier™ Perkin Elmer). U2OS cells were seed at density of cells 5 × 10^4 cells/well. After 3 hours, attached cells were transduced with 20 µl/well of viral stock dilution in PBS (Gibco) at multiplicity of infection (MOI) of 500 MOI. After were centrifuged during 30′ at 1500 rpm. Then plates were incubated at 37 °C during 5 hours. Thereafter the virus solution was replaced with 40 ul of complete growth medium containing 3 mM sodium butyrate (ABCR) with or without compound depending of the experiment. Cells were incubated for 16 hours at 37 °C with 5% of CO2. Finally plates were fixed with 4% paraformaldehyde (PFA) and stained with 5 µM Hoechst 33342 (Sigma-Aldrich). After 10 minutes of incubation at room temperature, plates were washed with PBS (GiBCO) and stored at 4 °C until imaging. For the immunostaining against p25 cells were permeabilized and stained with PBS, BSA 0.2% and Triton-X 100 0.5% and p35 (C-19) antibody from Santa Cruz Biotechnology (diluted 1:100 and incubated at 4 °C o/n). […]
(§2) Cells were transduced or transfected and fixed as described above. Cells were stored in PBS until automated fluorescence microscopy analysis with Opera. Fluorescence images were acquired using the Opera QEHS reader (Perkin-Elmer) using a 20x objective. […]

U2OS cells = experiment: Total cell number / cytotoxicity in BiFC experiments; format: cell-based; details: prohibited increasing the compound concentration to above 13 µM
Experimental: Experiments were carried out in sterile, black clear-bottom 384 well plates (Cell carrier™ Perkin Elmer). U2OS cells were seed at density of cells 5 × 10^4 cells/well. After 3 hours, attached cells were transduced with 20 µl/well of viral stock dilution in PBS (Gibco) at multiplicity of infection (MOI) of 500 MOI. After were centrifuged during 30′ at 1500 rpm. Then plates were incubated at 37 °C during 5 hours. Thereafter the virus solution was replaced with 40 ul of complete growth medium containing 3 mM sodium butyrate (ABCR) with or without compound depending of the experiment. Cells were incubated for 16 hours at 37 °C with 5% of CO2. Finally plates were fixed with 4% paraformaldehyde (PFA) and stained with 5 µM Hoechst 33342 (Sigma-Aldrich). After 10 minutes of incubation at room temperature, plates were washed with PBS (GiBCO) and stored at 4 °C until imaging. For the immunostaining against p25 cells were permeabilized and stained with PBS, BSA 0.2% and Triton-X 100 0.5% and p35 (C-19) antibody from Santa Cruz Biotechnology (diluted 1:100 and incubated at 4 °C o/n). Then, the plates were incubated for 2 hrs at 37 °C with a donkey anti-rabbit conjugated with the alexa fluor 647 secondary antibody (Invitrogen). Finally plates were washed with PBS and stored at 4 °C until imaging.
Supplementary Figure S2. Total cell number in BiFC experiments. […]

Tau dimerization = experiment: Tau BiFC counter assay in transduced U2OS cells (VN-TAU/VC-TAU); format: cell-based; details: counter screen, 16h treatment; CPDs even at high concentration
Experimental: as §1, with “imaging.” for “imaging. For the immunostaining against p25 cells were permeabilized and stained with PBS, BSA 0.2% and Triton-X 100 0.5% and p35 (C-19) antibody from Santa Cruz Biotechnology (diluted 1:100 and incubated at 4 °C o/n).”
as §2
(§3) Supplementary Figure S3. […] Then cells were treated with indicated amounts of compounds for 16h and percentage of BiFC positive cells was determined by High Content image analysis.

MLKL-RIPK3 PPI = target: T2, MLKL-RIPK3 PPI (Homo sapiens, UniProt Q8NB16+Q9Y572); experiment: MLKL-RIPK3 BiFC counter assay in transduced U2OS cells (VN-MLKL/VC-RIPK3); format: cell-based; details: counter screen, 16h treatment; CPDs even at high concentration
T2 construct: expressed in transfected cells; host or cells: U2OS cells transduced with MultiBacMam baculovirus
Experimental: as §1, with “imaging.” for “imaging. For the immunostaining against p25 cells were permeabilized and stained with PBS, BSA 0.2% and Triton-X 100 0.5% and p35 (C-19) antibody from Santa Cruz Biotechnology (diluted 1:100 and incubated at 4 °C o/n).”
as §2, §3

T1 sequence (Q00535 whole entry D144N): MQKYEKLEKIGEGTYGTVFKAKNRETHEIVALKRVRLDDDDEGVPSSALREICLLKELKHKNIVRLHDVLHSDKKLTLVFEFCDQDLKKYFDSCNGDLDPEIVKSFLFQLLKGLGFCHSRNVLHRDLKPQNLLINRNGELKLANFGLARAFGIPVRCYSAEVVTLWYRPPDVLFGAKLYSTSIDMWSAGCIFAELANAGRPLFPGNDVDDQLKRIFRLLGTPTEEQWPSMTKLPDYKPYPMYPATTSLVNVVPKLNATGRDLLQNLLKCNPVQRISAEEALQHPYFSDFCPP
T1 sequence (Q15078 99-307 limits assumed): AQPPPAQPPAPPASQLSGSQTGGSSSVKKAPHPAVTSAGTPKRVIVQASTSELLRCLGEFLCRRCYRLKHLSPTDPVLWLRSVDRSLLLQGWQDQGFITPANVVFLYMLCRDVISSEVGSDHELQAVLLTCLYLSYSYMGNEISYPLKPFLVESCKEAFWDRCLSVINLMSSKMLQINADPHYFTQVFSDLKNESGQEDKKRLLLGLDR
T2 sequence (Q8NB16 whole entry): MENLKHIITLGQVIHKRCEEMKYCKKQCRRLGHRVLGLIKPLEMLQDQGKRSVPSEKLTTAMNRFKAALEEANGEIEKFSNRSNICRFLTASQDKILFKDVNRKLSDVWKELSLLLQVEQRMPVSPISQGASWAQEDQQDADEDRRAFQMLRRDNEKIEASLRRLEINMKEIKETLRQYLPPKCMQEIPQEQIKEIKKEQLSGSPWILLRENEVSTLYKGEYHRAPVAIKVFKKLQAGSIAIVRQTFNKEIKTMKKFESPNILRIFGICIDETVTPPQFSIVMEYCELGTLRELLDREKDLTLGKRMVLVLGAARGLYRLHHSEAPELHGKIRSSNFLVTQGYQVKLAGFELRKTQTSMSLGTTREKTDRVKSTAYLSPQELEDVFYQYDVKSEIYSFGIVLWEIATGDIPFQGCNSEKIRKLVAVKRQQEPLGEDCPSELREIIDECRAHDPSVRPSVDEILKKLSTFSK
T2 sequence (Q9Y572 whole entry): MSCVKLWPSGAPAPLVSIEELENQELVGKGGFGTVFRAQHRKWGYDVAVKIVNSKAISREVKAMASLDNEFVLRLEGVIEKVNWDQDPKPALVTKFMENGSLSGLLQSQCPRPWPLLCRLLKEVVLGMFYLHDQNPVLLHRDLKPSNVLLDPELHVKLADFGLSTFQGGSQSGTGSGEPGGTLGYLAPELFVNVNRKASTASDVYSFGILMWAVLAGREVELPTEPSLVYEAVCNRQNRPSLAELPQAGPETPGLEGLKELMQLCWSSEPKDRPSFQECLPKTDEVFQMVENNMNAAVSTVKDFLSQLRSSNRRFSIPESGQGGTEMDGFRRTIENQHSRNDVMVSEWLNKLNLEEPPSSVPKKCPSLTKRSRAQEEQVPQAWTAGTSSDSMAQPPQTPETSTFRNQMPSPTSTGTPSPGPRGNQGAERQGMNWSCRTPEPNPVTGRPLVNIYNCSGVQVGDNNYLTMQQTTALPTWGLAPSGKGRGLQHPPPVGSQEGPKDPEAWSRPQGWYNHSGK

| SMILES | inhibitory effect on CDK5-p25 PPI (CDK5-p25 PPI) | toxic effect on the cells (U2OS cells) | effect on Tau dimerization (Tau dimerization) | effect on MLKL-RIPK3 PPI (MLKL-RIPK3 PPI) |
| --- | --- | --- | --- | --- |
| C[C@@]12CCC[C@H]1[C@@H]1CC[C@H]3C[C@H](N)CC[C@]3(C)[C@H]1CC2 [3α-amino-5α-androstane] | did not reproduce this published data | toxic effect | – | – |
| CC(C)CC(=O)Nc1[nH]nc2c1CN(C(=O)C1CCN(C)CC1)C2(C)C [pHA-793887] | – | – | non-specific fluorescence complementation inhibitor | non-specific fluorescence complementation inhibitor |
